{"source": "patent US11492359B2", "about": "“Near-infrared nerve-sparing fluorophores” (OREGON HEALTH & SCIENCE UNIVERSITY, priority 2018, dated 2022)", "test": "UV-Vis absorption and fluorescence spectroscopy of the Oxazine library", "format": "physicochemical", "details": "for Extinction coefficient: Beer's Law plots; for Quantum yield: relative, references Oxazine 1, Oxazine 170, Rhodamine 101", "protocol": "All reagents were purchased from Sigma Aldrich, Fisher Scientific, TCI, or Ark Pharm. Unless otherwise indicated, all commercially available starting materials were used directly without further purification. Analytical thin layer chromatography (TLC) was performed on Millipore ready-to-use plates with silica gel 60 (F254, 32-63 μm). Flash chromatography was performed on Sorbent Technologies silica gel for column chromatography or on a Biotage Isolera Flash System using SNAP Ultra cartridges. High-resolution mass spectra (HRMS) were measured on a ThermoElectron LTQ-Orbitrap high resolution mass spectrometer with a dedicated Accela HPLC system, or an Agilent 6244 time-of-flight LCMS with diode array detector VL+. LCMS and Purity Characterization Mass-to-charge ratio and purity of the Oxazine compounds were characterized on an Agilent 6244 time-of-flight tandem liquid chromatography mass spectroscopy (LCMS) with diode array detector VL+. Sample (10 μL) was injected into a C18 column (Poroshell 120, 4.6×50 mm, 2.7 micron), and eluted with a solvent system of A (H2O, 0.1% FA) and B (MeCN, 01.% FA) at 0.4 mL/min, from A/B=90/10 to 5/95 over 10 min, maintained at A/B=5/95 for additional 5 min. Ions were detected in positive ion mode by setting the capillary voltage at 4 kV and gas temperature at 350° C. Purity was calculated through area under the curve analysis of the absorbance at 254 nm. UV-Vis Absorption and Fluorescence Spectroscopy. UV-Vis spectra were collected with a Cary 50 UV-Vis spectrophotometer at room temperature, using a 1-cm quartz cuvette. Fluorescence spectra were collected on a Cary Eclipse fluorescence spectrophotometer (Agilent Technologies). All absorbance spectra were reference corrected. Extinction coefficient was calculated from Beer's Law plots of absorbance versus concentration. Fluorescence spectra were corrected for the wavelength dependent response of the R928 photomultiplier tube using a manufacturer generated correction file. Relative quantum yields are reported as the average of multiple measurements using multiple references, including Oxazine 1, Oxazine 170, and Rhodamine 101. Physicochemical Property Calculation. Physicochemical partition coefficients (Log D) values at pH 7.4, number of hydrogen bond donors and acceptors, polar surface area, and the number of rotatable bonds were calculated using Marvin and JChem calculator plugins (ChemAxon, Budapest, Hungary). Nerve-Specificity Screening using Direct/Topical Administration Each compound was screened for its tissue-specificity using a previously published direct/topical administration strategy in murine brachial plexus and sciatic nerves.^1 Each compound from the Oxazine library was formulated in the previously utilized co-solvent formulation (10% DMSO, 5% Kolliphor, 65% serum and 20% phosphate buffered saline) at 125 μM. 100 μL of the formulated Oxazine were incubated on the exposed brachial plexus or sciatic nerve for 5 minutes. The fluorophore containing solution was removed and the area was irrigated with saline 18 times to remove any unbound fluorophore. Co-registered fluorescence and color images were collected of each stained area 30 minutes after Oxazine direct/topical administration using a custom built macroscopic imaging system with 620/60 nm excitation and 700/75 nm bandpass emission filters. Custom written MatLab code was used to analyze the tissue specific fluorescence where regions of interest were selected on the nerve, muscle and adipose tissue using the white light images. These regions of interest were then analyzed on the co-registered matched fluorescence images permitting assessment of the nerve to muscle and nerve to adipose ratios in blinded manner. […]", "data": [{"smiles": "c1c2c(cc3c1Oc1cc4c(cc1=N3)OCCN=4)OCCN2", "note": "[LGW03-65, 3,8,9,10-tetrahydro-2H-bis([1,4]oxazino)[2,3-b:3′,2′-i]phenoxazin-4-ium]", "values": [{"measurement": "Max Abs", "value": 629, "unit": "nm"}, {"measurement": "Max Em", "value": 643, "unit": "nm"}, {"measurement": "Max Ex", "value": 630, "unit": "nm"}, {"measurement": "Extinction coefficient", "value": 28067, "unit": "M⁻¹ cm⁻¹"}, {"measurement": "Quantum yield", "value": 27.39, "unit": "%"}]}, {"smiles": "CC[N+](CC)=c1ccc2nc3cc4c(cc3oc-2c1)NCC4", "note": "[LGW03-88, N-(2,3-dihydropyrrolo[3,2-b]phenoxazin-8(1H)-ylidene)-N-ethylethanaminium]", "values": [{"measurement": "Max Abs", "value": 631, "unit": "nm"}, {"measurement": "Max Em", "value": 659, "unit": "nm"}, {"measurement": "Max Ex", "value": 640, "unit": "nm"}, {"measurement": "Extinction coefficient", "value": 59737, "unit": "M⁻¹ cm⁻¹"}, {"measurement": "Quantum yield", "value": 6.22, "unit": "%"}]}, {"smiles": "CCCNc1cc2oc3c/c(=N/CC)c(C)cc-3nc2cc1C", "note": "[LGW04-32, (Z)—N-(2,8-dimethyl-7-(propylamino)-3H-phenoxazin-3-ylidene)ethanaminium]", "values": [{"measurement": "Max Abs", "value": 620, "unit": "nm"}, {"measurement": "Max Em", "value": 638, "unit": "nm"}, {"measurement": "Max Ex", "value": 620, "unit": "nm"}, {"measurement": "Extinction coefficient", "value": 61084, "unit": "M⁻¹ cm⁻¹"}, {"measurement": "Quantum yield", "value": 39.77, "unit": "%"}]}, {"smiles": "CC/N=c1/cc2oc3cc(N(C)C)ccc3nc-2cc1C", "note": "[LGW04-36, (Z)—N-(7-(dimethylamino)-2-methyl-3H-phenoxazin-3-ylidene)ethanaminium]", "values": [{"measurement": "Max Abs", "value": 636, "unit": "nm"}, {"measurement": "Max Em", "value": 657, "unit": "nm"}, {"measurement": "Max Ex", "value": 635, "unit": "nm"}, {"measurement": "Extinction coefficient", "value": 60819, "unit": "M⁻¹ cm⁻¹"}, {"measurement": "Quantum yield", "value": 8.15, "unit": "%"}]}, {"smiles": "CC/N=c1/cc2oc3cc(NC)c(C)cc3nc-2cc1C", "note": "[LGW04-81, (Z)—N-(2,8-dimethyl-7-(methylamino)-3H-phenoxazin-3-ylidene)ethanaminium]", "values": [{"measurement": "Max Abs", "value": 616, "unit": "nm"}, {"measurement": "Max Em", "value": 634, "unit": "nm"}, {"measurement": "Max Ex", "value": 615, "unit": "nm"}, {"measurement": "Extinction coefficient", "value": 52291, "unit": "M⁻¹ cm⁻¹"}, {"measurement": "Quantum yield", "value": 39.47, "unit": "%"}]}, {"smiles": "c1cc2nc3ccc(=[N+]4CCCCC4)cc-3oc2cc1N1CCCCC1", "note": "[LGW04-91, 1-(7-(piperidin-1-yl)-3H-phenoxazin-3-ylidene)piperidin-1-ium]", "values": [{"measurement": "Max Abs", "value": 663, "unit": "nm"}, {"measurement": "Max Em", "value": 689, "unit": "nm"}, {"measurement": "Max Ex", "value": 665, "unit": "nm"}, {"measurement": "Extinction coefficient", "value": 85597, "unit": "M⁻¹ cm⁻¹"}, {"measurement": "Quantum yield", "value": 2.77, "unit": "%"}]}, {"smiles": "CCNc1cc2oc3cc(=[N+](CC)CC)ccc-3nc2cc1Cl", "note": "[LGW05-33, N-(8-chloro-7-(ethylamino)-3H-phenoxazin-3-ylidene)-N-ethylethanaminium]", "values": [{"measurement": "Max Abs", "value": 638, "unit": "nm"}, {"measurement": "Max Em", "value": 660, "unit": "nm"}, {"measurement": "Max Ex", "value": 640, "unit": "nm"}, {"measurement": "Extinction coefficient", "value": 36166, "unit": "M⁻¹ cm⁻¹"}, {"measurement": "Quantum yield", "value": 3.84, "unit": "%"}]}, {"smiles": "CC/N=c1/cc2oc3cc(NCC)c(Cl)cc3nc-2cc1Cl", "note": "[LGW05-39, (Z)—N-(2,8-dichloro-7-(ethylamino)-3H-phenoxazin-3-ylidene)ethanaminium]", "values": [{"measurement": "Max Abs", "value": 620, "unit": "nm"}, {"measurement": "Max Em", "value": 638, "unit": "nm"}, {"measurement": "Max Ex", "value": 620, "unit": "nm"}, {"measurement": "Extinction coefficient", "value": 18223, "unit": "M⁻¹ cm⁻¹"}, {"measurement": "Quantum yield", "value": 34.29, "unit": "%"}]}, {"smiles": "CC/N=c1/cc2oc3cc(NCC)c(Cl)cc3nc-2cc1C", "note": "[LGW05-42, (Z)—N-(8-chloro-7-(ethylamino)-2-methyl-3H-phenoxazin-3-ylidene)ethanaminium]", "values": [{"measurement": "Max Abs", "value": 612, "unit": "nm"}, {"measurement": "Max Em", "value": 636, "unit": "nm"}, {"measurement": "Max Ex", "value": 615, "unit": "nm"}, {"measurement": "Extinction coefficient", "value": 41527, "unit": "M⁻¹ cm⁻¹"}, {"measurement": "Quantum yield", "value": 37.22, "unit": "%"}]}, {"smiles": "CCN1CCOc2cc3nc4ccc(=[N+](CC)CC)cc-4oc3cc21", "note": "[LGW05-65, N-ethyl-N-(4-ethyl-3,4-dihydro-[1,4]oxazino[2,3-b]phenoxazin-8(2H)-ylidene)ethanaminium]", "values": [{"measurement": "Max Abs", "value": 661, "unit": "nm"}, {"measurement": "Max Em", "value": 684, "unit": "nm"}, {"measurement": "Max Ex", "value": 665, "unit": "nm"}, {"measurement": "Extinction coefficient", "value": 61535, "unit": "M⁻¹ cm⁻¹"}, {"measurement": "Quantum yield", "value": 7.85, "unit": "%"}]}, {"smiles": "CCN1c2cc3c(cc2C(C)=CC1(C)C)N=c1cc2c(cc1O3)=[N+](CC)C(C)(C)C=C2C", "note": "[LGW05-66, 1,11-diethyl-2,2,4,8,10,10-hexamethyl-10,11-dihydro-2H-dipyrido[3,2-b:2′,3′-i]phenoxazin-1-ium]", "values": [{"measurement": "Max Abs", "value": 701, "unit": "nm"}, {"measurement": "Max Em", "value": 718, "unit": "nm"}, {"measurement": "Max Ex", "value": 710, "unit": "nm"}, {"measurement": "Extinction coefficient", "value": 34002, "unit": "M⁻¹ cm⁻¹"}, {"measurement": "Quantum yield", "value": 36.68, "unit": "%"}]}]}
